Patent US9637491B2, “Pyrazolo[4,3-D]pyrimidines as kinase inhibitors” (Origenis GmbH, priority 2012, dated 2017)

Target: T1, SYK kinase (Homo sapiens, UniProt P43405)
T1 construct: purchased Invitrogen, Carlsbad
Assay: SYK assay (OMNIA Kinase Assay, Invitrogen)
Format: biochemical
Conditions: SYK Activities; 1 mM ATP, 10 μM Omnia Peptide Substrate Tyr 7, 30° C.
How it was run: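 Continuous-read fluorescence kinase assay: SOX-labelled Tyr 7 peptide (10 μM) with 1 mM ATP and 0.2 mM DTT, 30° C, reaction started by adding SYK. Fluorescence (ex 360/em 485 nm) read every 30 s for 30 min. IC50 from sigmoidal fit of reaction velocity versus inhibitor concentration.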

Row | IC50 | SMILES
1 | 100 to 1000 nM | COCCn1cc(Nc2nc(-c3ccoc3)nc3cn[nH]c23)cn1 [Example 199, 5-(furan-3-yl)-N-(1-(2-methoxyethyl)-1H-pyrazol-4-yl)-1H-pyrazolo[4,3-d]pyrimidin-7-amine]
2 | 10 to 100 nM | FCCn1cc(Nc2nc(-c3ccco3)nc3cn[nH]c23)cn1 [Example 367, N-(1-(2-fluoroethyl)-1H-pyrazol-4-yl)-5-(furan-2-yl)-1H-pyrazolo[4,3-d]pyrimidin-7-amine]
3 | 10 to 100 nM | OCCn1cc(Nc2nc(-c3cocn3)nc3cn[nH]c23)cn1 [Example 247, 2-(4-((5-(oxazol-4-yl)-1H-pyrazolo[4,3-d]pyrimidin-7-yl)amino)-1H-pyrazol-1-yl)ethan-1-ol]
4 | 10 to 100 nM | CC(C)C(C)n1cc(Nc2nc(-c3ccoc3)nc3cn[nH]c23)cn1 (centres unmarked) [Example 482, 5-(furan-3-yl)-N-(1-(3-methylbutan-2-yl)-1H-pyrazol-4-yl)-1H-pyrazolo[4,3-d]pyrimidin-7-amine]
5 | 10 to 100 nM | CC(C)Cn1cc(Nc2nc(-c3cccc(S(N)(=O)=O)c3)nc3cn[nH]c23)cn1 [Example 428, 3-(7-((1-isobutyl-1H-pyrazol-4-yl)amino)-1H-pyrazolo[4,3-d]pyrimidin-5-yl)benzenesulfonamide]
6 | 10 to 100 nM | COc1cccc(-c2nc(Nc3cnn(C4CCOCC4)c3)c3[nH]ncc3n2)c1 [Example 409, 5-(3-methoxyphenyl)-N-(1-(tetrahydro-2H-pyran-4-yl)-1H-pyrazol-4-yl)-1H-pyrazolo[4,3-d]pyrimidin-7-amine]
7 | 100 to 1000 nM | CC(c1ccccc1)n1cc(Nc2nc(-c3ccoc3)nc3cn[nH]c23)cn1 (centres unmarked) [Example 487, 5-(furan-3-yl)-N-(1-(1-phenylethyl)-1H-pyrazol-4-yl)-1H-pyrazolo[4,3-d]pyrimidin-7-amine]
8 | 100 to 1000 nM | CC(C)n1ncc(Nc2nc(C3CC3)nc3cn[nH]c23)c1Cl [Example 297, N-(5-chloro-1-isopropyl-1H-pyrazol-4-yl)-5-cyclopropyl-1H-pyrazolo[4,3-d]pyrimidin-7-amine]
9 | 100 to 1000 nM | O=C(c1ccc(Nc2nc(-c3ccco3)nc3cn[nH]c23)cc1F)N1CCOCC1 [Example 197, (2-fluoro-4-((5-(furan-2-yl)-1H-pyrazolo[4,3-d]pyrimidin-7-yl)amino)phenyl)(morpholino)methanone]
10 | 10 to 100 nM | COc1cc(Nc2nc(-c3c(F)cccc3Cl)nc3cn[nH]c23)ccc1N1CCOCC1 [Example 514, 5-(2-chloro-6-fluorophenyl)-N-(3-methoxy-4-morpholinophenyl)-1H-pyrazolo[4,3-d]pyrimidin-7-amine]
11 | 100 to 1000 nM | CC(C)Cn1cc(Nc2nc(-c3cccc(NS(C)(=O)=O)c3)nc3cn[nH]c23)cn1 [Example 261, N-(3-(7-((1-isobutyl-1H-pyrazol-4-yl)amino)-1H-pyrazolo[4,3-d]pyrimidin-5-yl)phenyl)methanesulfonamide]
12 | 100 to 1000 nM | c1nn(C2CCNC2)cc1Nc1nc(C2C3CCCCC32)nc2cn[nH]c12 (centres unmarked) [Example 474, 5-(bicyclo[4.1.0]heptan-7-yl)-N-(1-(pyrrolidin-3-yl)-1H-pyrazol-4-yl)-1H-pyrazolo[4,3-d]pyrimidin-7-amine]
13 | 100 to 1000 nM | COc1cc(Nc2nc(-c3ccon3)nc3cn[nH]c23)ccc1N1CCOCC1 [Example 76, 5-(isoxazol-3-yl)-N-(3-methoxy-4-morpholinophenyl)-1H-pyrazolo[4,3-d]pyrimidin-7-amine]
14 | 10 to 100 nM | COCCCn1cc(Nc2nc(-c3cccc(OC)c3)nc3cn[nH]c23)cn1 [Example 408, 5-(3-methoxyphenyl)-N-(1-(3-methoxypropyl)-1H-pyrazol-4-yl)-1H-pyrazolo[4,3-d]pyrimidin-7-amine]
15 | 100 to 1000 nM | c1nn(C2CCOCC2)cc1Nc1nc(C2C3CCCCC32)nc2cn[nH]c12 (centres unmarked) [Example 473, 5-(bicyclo[4.1.0]heptan-7-yl)-N-(1-(tetrahydro-2H-pyran-4-yl)-1H-pyrazol-4-yl)-1H-pyrazolo[4,3-d]pyrimidin-7-amine]
16 | 100 to 1000 nM | O=C1OCCN1c1ccc(Nc2nc(-c3cccs3)nc3cn[nH]c23)cc1 [Example 38]
17 | 10 to 100 nM | c1nn(C2CC2)cc1Nc1nc(C2CCC2)nc2cn[nH]c12 [Example 267, 5-cyclobutyl-N-(1-cyclopropyl-1H-pyrazol-4-yl)-1H-pyrazolo[4,3-d]pyrimidin-7-amine]
18 | 10 to 100 nM | c1ccc(Cn2cc(-c3nc(Nc4ccc(N5CCOCC5)cc4)c4[nH]ncc4n3)cn2)cc1 [Example 460, 5-(1-benzyl-1H-pyrazol-4-yl)-N-(4-morpholinophenyl)-1H-pyrazolo[4,3-d]pyrimidin-7-amine]
19 | 100 to 1000 nM | CC(=O)N1CCN(c2ccc(Nc3nc(-c4cccc(N)c4)nc4cn[nH]c34)cc2)CC1 [Example 14, 1-(4-(4-((5-(3-aminophenyl)-1H-pyrazolo[4,3-d]pyrimidin-7-yl)amino)phenyl)piperazin-1-yl)ethan-1-one]

Row | IC50 | SMILES
20 | 100 to 1000 nM | Fc1cc(Nc2nc(-c3c(F)cccc3F)nc3cn[nH]c23)ccc1N1CCOCC1 [Example 11, 5-(2,6-difluorophenyl)-N-(3-fluoro-4-morpholinophenyl)-1H-pyrazolo[4,3-d]pyrimidin-7-amine]
21 | 100 to 1000 nM | CC(C)n1ncc(Nc2nc(C3CCC3)nc3cn[nH]c23)c1Cl [Example 312, N-(5-chloro-1-isopropyl-1H-pyrazol-4-yl)-5-cyclobutyl-1H-pyrazolo[4,3-d]pyrimidin-7-amine]
22 | 10 to 100 nM | c1cc(-c2nc(Nc3cnn(C4CCOCC4)c3)c3[nH]ncc3n2)co1 [Example 110, 5-(furan-3-yl)-N-(1-(tetrahydro-2H-pyran-4-yl)-1H-pyrazol-4-yl)-1H-pyrazolo[4,3-d]pyrimidin-7-amine]
23 | 10 to 100 nM | O=C1CCCc2ccc(Nc3nc(-c4ccco4)nc4cn[nH]c34)cc2N1 [Example 113, 8-((5-(furan-2-yl)-1H-pyrazolo[4,3-d]pyrimidin-7-yl)amino)-4,5-dihydro-1H-benzo[b]azepin-2(3H)-one]
24 | 10 to 100 nM | CC(C)Cn1cc(Nc2nc(-c3cnn(C)c3)nc3cn[nH]c23)cn1 [Example 437, N-(1-isobutyl-1H-pyrazol-4-yl)-5-(1-methyl-1H-pyrazol-4-yl)-1H-pyrazolo[4,3-d]pyrimidin-7-amine]
25 | 100 to 1000 nM | CC(C)c1nc(Nc2ccc(N3CCOCC3)cc2)c2[nH]ncc2n1 [Example 181, 5-isopropyl-N-(4-morpholinophenyl)-1H-pyrazolo[4,3-d]pyrimidin-7-amine]
26 | 10 to 100 nM | Oc1c(Cl)cc(Nc2nc(-c3c(F)cccc3F)nc3cn[nH]c23)cc1Cl [Example 540, 2,6-dichloro-4-((5-(2,6-difluorophenyl)-1H-pyrazolo[4,3-d]pyrimidin-7-yl)amino)phenol]
27 | 10 to 100 nM | CC(C)n1cc(Nc2nc(-c3cnn(C)c3)nc3cn[nH]c23)cn1 [Example 420, N-(1-isopropyl-1H-pyrazol-4-yl)-5-(1-methyl-1H-pyrazol-4-yl)-1H-pyrazolo[4,3-d]pyrimidin-7-amine]
28 | < 10 nM | CN1CCN(c2ccc(Nc3nc(-c4ccc5cn[nH]c5c4)nc4cn[nH]c34)cc2CO)CC1 [Example 536, (5-((5-(1H-indazol-6-yl)-1H-pyrazolo[4,3-d]pyrimidin-7-yl)amino)-2-(4-methylpiperazin-1-yl)phenyl)methanol]
29 | 10 to 100 nM | CC(C)Cn1cc(Nc2nc(-c3cocn3)nc3cn[nH]c23)cn1 [Example 246, N-(1-isobutyl-1H-pyrazol-4-yl)-5-(oxazol-4-yl)-1H-pyrazolo[4,3-d]pyrimidin-7-amine]
30 | 100 to 1000 nM | CC(C)Cn1cc(Nc2nc(C(C)(C)C)nc3cn[nH]c23)cn1 [Example 268, 5-(tert-butyl)-N-(1-isobutyl-1H-pyrazol-4-yl)-1H-pyrazolo[4,3-d]pyrimidin-7-amine]
31 | 100 to 1000 nM | COc1cc(Nc2nc(-c3c(C)cccc3F)nc3cn[nH]c23)ccc1N1CCOCC1 [Example 481, 5-(2-fluoro-6-methylphenyl)-N-(3-methoxy-4-morpholinophenyl)-1H-pyrazolo[4,3-d]pyrimidin-7-amine]
32 | 10 to 100 nM | COCCn1cc(Nc2nc(C3CCC3)nc3cn[nH]c23)cn1 [Example 191, 5-cyclobutyl-N-(1-(2-methoxyethyl)-1H-pyrazol-4-yl)-1H-pyrazolo[4,3-d]pyrimidin-7-amine]
33 | 100 to 1000 nM | CC(=O)N1CCC(n2cc(Nc3nc(-c4cccc(S(N)(=O)=O)c4)nc4cn[nH]c34)cn2)CC1 [Example 427, 3-(7-((1-(1-acetylpiperidin-4-yl)-1H-pyrazol-4-yl)amino)-1H-pyrazolo[4,3-d]pyrimidin-5-yl)benzenesulfonamide]
34 | 10 to 100 nM | NS(=O)(=O)c1cccc(-c2nc(Nc3cnn(C4CCOCC4)c3)c3[nH]ncc3n2)c1 [Example 425, 3-(7-((1-(tetrahydro-2H-pyran-4-yl)-1H-pyrazol-4-yl)amino)-1H-pyrazolo[4,3-d]pyrimidin-5-yl)benzenesulfonamide]
35 | 100 to 1000 nM | O=C(O)c1cccc(-c2nc(Nc3cnn(C4CCOCC4)c3)c3[nH]ncc3n2)c1 [Example 217, 3-(7-((1-(tetrahydro-2H-pyran-4-yl)-1H-pyrazol-4-yl)amino)-1H-pyrazolo[4,3-d]pyrimidin-5-yl)benzoic acid]
36 | 100 to 1000 nM | CC(C)(C#N)n1cc(Nc2nc(-c3ccco3)nc3cn[nH]c23)cn1 [Example 211, 2-(4-((5-(furan-2-yl)-1H-pyrazolo[4,3-d]pyrimidin-7-yl)amino)-1H-pyrazol-1-yl)-2-methylpropanenitrile]
37 | 100 to 1000 nM | CC(=O)Nc1cc(Nc2nc(-c3c(F)cccc3F)nc3cn[nH]c23)ccc1N1CCN(C(C)=O)CC1 [Example 538, N-(2-(4-acetylpiperazin-1-yl)-5-((5-(2,6-difluorophenyl)-1H-pyrazolo[4,3-d]pyrimidin-7-yl)amino)phenyl)acetamide]
38 | 10 to 100 nM | COCCn1cc(Nc2nc(-c3ccc4cn[nH]c4c3)nc3cn[nH]c23)cn1 [Example 131, 5-(1H-indazol-6-yl)-N-(1-(2-methoxyethyl)-1H-pyrazol-4-yl)-1H-pyrazolo[4,3-d]pyrimidin-7-amine]
